This note sets out measurements from patent US20250129121A1, “POLYPEPTIDE, PRODUCT INCLUDING POLYPEPTIDE FOR INHIBITING FUSOBACTERIUM NUCLEATUM, OR DRUG FOR PREVENTING COLORECTAL CANCER” (priority 2022, published 2025).

≈ marks a conversion by molar mass, not a printed value. Where a SMILES comes first, the peptide text is derived from it.

Assay [1] has as its system Bifidobacterium longum 6194. Format: cell-based. As to conditions: 20 h. Here is the method: (§1) A. Each polypeptide was prepared into a specified stock solution for later use. Minimum inhibitory concentrations (MICs) of the polypeptides P1 to P12 were determined by a broth microdilution method. With 0.01% acetic acid (including 0.2% of bovine serum albumin (BSA)) as a diluent, a series of gradient antimicrobial peptide solutions were prepared by a two-fold dilution method.
(§2) B. 100 μL of each polypeptide stock solution was taken and added to a 96-well cell culture plate, and then each strain solution to be tested (about 10^5/mL) was added in an equal volume to each well. A positive control (including a strain solution, but not including a polypeptide) and a negative control (including neither a strain solution nor a polypeptide). Strains to be tested include Escherichia coli Nissile 1917, Vibrio cholerae H1, Pseudomonas aeruginosa PAO1, F. nucleatum 25586, F. nucleatum 10953, Bifidobacterium uniformis 6597, Lactobacillus acidophilus 6075, Bifidobacterium longum 6194Lactobacillus rhamnosus 6141, and Streptococcus agalactiae H94.
(§3) C. The cell culture plate was incubated at a constant temperature of 37° C. for 20 h, and MIC was recorded when the turbidity was not observed by naked eyes at a bottom of a well. The strains all were purchased from the market.

The test system of assay [2] is Bifidobacterium uniformis 6597. Format: cell-based. As to conditions: 20 h. Here is the method: as §1, §2, §3
The subject of assay [3] is Escherichia coli Nissile 1917. Type of assay: cell-based. Particulars: Nissile 1917, 20 h. As to the method:
as §1, §2, §3

The subject of assay [4] is Lactobacillus acidophilus 6075. Format: cell-based. Particulars: 20 h. Here is the method:
as §1, §2, §3

In assay [5] the test system is Lactobacillus rhamnosus 6141. Format: cell-based. Particulars: 20 h. As to the method: as §1, §2, §3
The test system of assay [6] is Pseudomonas aeruginosa PAO1. Type of assay: cell-based. Particulars: PAO1, 20 h. As to the method:
as §1, §2, §3

For assay [7], the system named is Streptococcus agalactiae H94. Format: cell-based. As to conditions: H94, 20 h. Here is the method: as §1, §2, §3
The subject of the next assay is F. nucleatum 10953. Type of assay: cell-based, Fusobacterium nucleatum. Particulars: 10953, 20 h. As to the method: as §1, §2, §3
In the next assay the test system is F. nucleatum 25586. Format: cell-based, Fusobacterium nucleatum. As to conditions: 25586, 20 h. Here is the method: as §1, §2, §3

`N=C(N)NCCC[C@H](NC(=O)CNC(=O)[C@@H]1CCCN1C(=O)[C@H](CCCNC(=N)N)NC(=O)[C@H](Cc1c[nH]c2ccccc12)NC(=O)[C@H](CCC(=O)O)NC(=O)[C@@H](N)Cc1c[nH]c2ccccc12)C(=O)N[C@@H](Cc1c[nH]c2ccccc12)C(=O)N[C@@H](CCC(=O)O)C(=O)N[C@@H](Cc1c[nH]c2ccccc12)C(=O)O` [P1, WEWRPGRWEW] (H-WEWRPGRWEW-OH; N-terminus assumed): in [1], the “MIC Bifidobacterium longum 6194” value is above 64 µM. Moreover, the “MIC Bifidobacteriu muniformis 6597” value in [2] was above 64 µM. In addition, the “MIC Escherichia coli nissile1917” value in [3] is above 64 µM. Also, in [4], the “MIC Lactobacillus acidophilus 6075” value is above 64 µM. Also, in [5], the “MIC Lactobacterium rhamnosus 6141” value is above 64 µM. Besides, in assay [6], the “MIC Pseudomonas aeruginosa PAO1” value was above 64 µM. For the same molecule, the “MIC Streptococcus agalactiae H94” value in assay [7] was above 64 µM. The “MIC Fusobacterium nucleatum 10953” value with F. nucleatum 10953 is above 64 µM. Moreover, the “MIC Fusobacterium nucleatum 25586” value against F. nucleatum 25586 was above 64 µM.
Regarding `N=C(N)NCCC[C@H](NC(=O)CNC(=O)[C@@H]1CCCN1C(=O)[C@H](CCCNC(=N)N)NC(=O)[C@H](Cc1c[nH]c2ccccc12)NC(=O)[C@H](CCC(=O)O)NC(=O)[C@H](Cc1c[nH]c2ccccc12)NC(=O)[C@H](CCCNC(=N)N)NC(=O)[C@H](Cc1c[nH]c2ccccc12)NC(=O)[C@H](CCC(=O)O)NC(=O)[C@@H](N)Cc1c[nH]c2ccccc12)C(=O)N[C@@H](Cc1c[nH]c2ccccc12)C(=O)N[C@@H](CCC(=O)O)C(=O)N[C@@H](Cc1c[nH]c2ccccc12)C(=O)N[C@@H](CCCNC(=N)N)C(=O)N[C@@H](Cc1c[nH]c2ccccc12)C(=O)N[C@@H](CCC(=O)O)C(=O)N[C@@H](Cc1c[nH]c2ccccc12)C(=O)O` [P2, WEWRWEWRPGRWEWRWEW] (H-WEWRWEWRPGRWEWRWEW-OH; N-terminus assumed), in assay [1], the “MIC Bifidobacterium longum 6194” value was above 64 µM. Further, the “MIC Bifidobacteriu muniformis 6597” value in assay [2] was above 64 µM. Moreover, the “MIC Escherichia coli nissile1917” value in assay [3] is above 64 µM. For the same molecule, the “MIC Lactobacillus acidophilus 6075” value in assay [4] was above 64 µM. Besides, the “MIC Lactobacterium rhamnosus 6141” value in [5] was above 64 µM. Further, the “MIC Pseudomonas aeruginosa PAO1” value in [6] is above 64 µM. For the same molecule, the “MIC Streptococcus agalactiae H94” value in assay [7] is above 64 µM. Besides, the “MIC Fusobacterium nucleatum 10953” value with F. nucleatum 10953 was above 64 µM. In addition, the “MIC Fusobacterium nucleatum 25586” value in the assay on F. nucleatum 25586 was above 64 µM.
For `N=C(N)NCCC[C@H](NC(=O)CNC(=O)[C@@H]1CCCN1C(=O)[C@H](CCCNC(=N)N)NC(=O)[C@H](Cc1c[nH]c2ccccc12)NC(=O)[C@H](CCC(=O)O)NC(=O)[C@H](Cc1c[nH]c2ccccc12)NC(=O)[C@H](Cc1c[nH]c2ccccc12)NC(=O)[C@H](CCC(=O)O)NC(=O)[C@H](Cc1c[nH]c2ccccc12)NC(=O)[C@H](CCCNC(=N)N)NC(=O)CNC(=O)[C@@H]1CCCN1C(=O)[C@H](CCCNC(=N)N)NC(=O)[C@H](Cc1c[nH]c2ccccc12)NC(=O)[C@H](CCC(=O)O)NC(=O)[C@@H](N)Cc1c[nH]c2ccccc12)C(=O)N[C@@H](Cc1c[nH]c2ccccc12)C(=O)N[C@@H](CCC(=O)O)C(=O)N[C@@H](Cc1c[nH]c2ccccc12)C(=O)O` [P3] (H-WEWRPGRWEWWEWRPGRWEW-OH; N-terminus assumed), the “MIC Bifidobacterium longum 6194” value in assay [1] was above 64 µM. In addition, the “MIC Bifidobacteriu muniformis 6597” value in [2] is above 64 µM. Also, the “MIC Escherichia coli nissile1917” value in assay [3] was above 64 µM. The “MIC Lactobacillus acidophilus 6075” value in assay [4] was above 64 µM. Moreover, the “MIC Lactobacterium rhamnosus 6141” value in assay [5] was above 64 µM. In addition, the “MIC Pseudomonas aeruginosa PAO1” value in assay [6] is above 64 µM. Further, the “MIC Streptococcus agalactiae H94” value in assay [7] was above 64 µM. For the same molecule, the “MIC Fusobacterium nucleatum 10953” value in the assay with F. nucleatum 10953 was above 64 µM. Further, in the assay with F. nucleatum 25586, the “MIC Fusobacterium nucleatum 25586” value is above 64 µM.
In the case of `N=C(N)NCCC[C@H](NC(=O)CNC(=O)[C@@H]1CCCN1C(=O)[C@H](CCCNC(=N)N)NC(=O)[C@H](Cc1c[nH]c2ccccc12)NC(=O)[C@H](CC(=O)O)NC(=O)[C@@H](N)Cc1c[nH]c2ccccc12)C(=O)N[C@@H](Cc1c[nH]c2ccccc12)C(=O)N[C@@H](CC(=O)O)C(=O)N[C@@H](Cc1c[nH]c2ccccc12)C(=O)O` [P4, WDWRPGRWDW] (H-WDWRPGRWDW-OH; N-terminus assumed), the “MIC Bifidobacterium longum 6194” value in assay [1] is above 64 µM. For the same molecule, the “MIC Bifidobacteriu muniformis 6597” value in assay [2] is above 64 µM. Besides, in assay [3], the “MIC Escherichia coli nissile1917” value is above 64 µM. The “MIC Lactobacillus acidophilus 6075” value in assay [4] was above 64 µM. The “MIC Lactobacterium rhamnosus 6141” value in [5] is above 64 µM. In addition, in assay [6], the “MIC Pseudomonas aeruginosa PAO1” value is above 64 µM. Besides, the “MIC Streptococcus agalactiae H94” value in [7] was above 64 µM. In addition, in the assay on F. nucleatum 10953, the “MIC Fusobacterium nucleatum 10953” value was above 64 µM. The “MIC Fusobacterium nucleatum 25586” value in the assay with F. nucleatum 25586 is above 64 µM.
As to `N=C(N)NCCC[C@H](NC(=O)CNC(=O)[C@@H]1CCCN1C(=O)[C@H](CCCNC(=N)N)NC(=O)[C@H](Cc1c[nH]c2ccccc12)NC(=O)[C@H](CC(=O)O)NC(=O)[C@H](Cc1c[nH]c2ccccc12)NC(=O)[C@H](CCCNC(=N)N)NC(=O)[C@H](Cc1c[nH]c2ccccc12)NC(=O)[C@H](CC(=O)O)NC(=O)[C@@H](N)Cc1c[nH]c2ccccc12)C(=O)N[C@@H](Cc1c[nH]c2ccccc12)C(=O)N[C@@H](CC(=O)O)C(=O)N[C@@H](Cc1c[nH]c2ccccc12)C(=O)N[C@@H](CCCNC(=N)N)C(=O)N[C@@H](Cc1c[nH]c2ccccc12)C(=O)N[C@@H](CC(=O)O)C(=O)N[C@@H](Cc1c[nH]c2ccccc12)C(=O)O` [P5, WDWRWDWRPGRWDWRWDW] (H-WDWRWDWRPGRWDWRWDW-OH; N-terminus assumed), the “MIC Bifidobacterium longum 6194” value in assay [1] was above 64 µM. Further, the “MIC Bifidobacteriu muniformis 6597” value in [2] is above 64 µM. Besides, the “MIC Escherichia coli nissile1917” value in assay [3] was 64 µM (≈ 176 µg/mL). Moreover, in assay [4], the “MIC Lactobacillus acidophilus 6075” value was above 64 µM. Besides, the “MIC Lactobacterium rhamnosus 6141” value in assay [5] was above 64 µM. In assay [6], the “MIC Pseudomonas aeruginosa PAO1” value is above 64 µM. In addition, the “MIC Streptococcus agalactiae H94” value in [7] was above 64 µM. The “MIC Fusobacterium nucleatum 10953” value in the assay on F. nucleatum 10953 is above 64 µM. In addition, the “MIC Fusobacterium nucleatum 25586” value against F. nucleatum 25586 is above 64 µM.
Turning to `N=C(N)NCCC[C@H](NC(=O)CNC(=O)[C@@H]1CCCN1C(=O)[C@H](CCCNC(=N)N)NC(=O)[C@H](Cc1c[nH]c2ccccc12)NC(=O)[C@H](CC(=O)O)NC(=O)[C@H](Cc1c[nH]c2ccccc12)NC(=O)[C@H](Cc1c[nH]c2ccccc12)NC(=O)[C@H](CC(=O)O)NC(=O)[C@H](Cc1c[nH]c2ccccc12)NC(=O)[C@H](CCCNC(=N)N)NC(=O)CNC(=O)[C@@H]1CCCN1C(=O)[C@H](CCCNC(=N)N)NC(=O)[C@H](Cc1c[nH]c2ccccc12)NC(=O)[C@H](CC(=O)O)NC(=O)[C@@H](N)Cc1c[nH]c2ccccc12)C(=O)N[C@@H](Cc1c[nH]c2ccccc12)C(=O)N[C@@H](CC(=O)O)C(=O)N[C@@H](Cc1c[nH]c2ccccc12)C(=O)O` [P6] (H-WDWRPGRWDWWDWRPGRWDW-OH; N-terminus assumed), the “MIC Bifidobacterium longum 6194” value in assay [1] is above 64 µM. Also, the “MIC Bifidobacteriu muniformis 6597” value in [2] was above 64 µM. The “MIC Escherichia coli nissile1917” value in assay [3] was 64 µM (≈ 186 µg/mL). In assay [4], the “MIC Lactobacillus acidophilus 6075” value is above 64 µM. In addition, the “MIC Lactobacterium rhamnosus 6141” value in [5] was above 64 µM. In addition, the “MIC Pseudomonas aeruginosa PAO1” value in [6] is above 64 µM. For the same molecule, the “MIC Streptococcus agalactiae H94” value in [7] was above 64 µM. For the same molecule, in the assay on F. nucleatum 10953, the “MIC Fusobacterium nucleatum 10953” value was determined as 64 µM (≈ 186 µg/mL). For the same molecule, the “MIC Fusobacterium nucleatum 25586” value against F. nucleatum 25586 stood at 64 µM (≈ 186 µg/mL).
As to `N=C(N)NCCC[C@H](NC(=O)CNC(=O)[C@@H]1CCCN1C(=O)[C@H](CCCNC(=N)N)NC(=O)[C@H](Cc1c[nH]c2ccccc12)NC(=O)[C@H](Cc1c[nH]cn1)NC(=O)[C@@H](N)Cc1c[nH]c2ccccc12)C(=O)N[C@@H](Cc1c[nH]c2ccccc12)C(=O)N[C@@H](Cc1c[nH]cn1)C(=O)N[C@@H](Cc1c[nH]c2ccccc12)C(=O)O` [P7, WHWRPGRWHW] (H-WHWRPGRWHW-OH; N-terminus assumed), the “MIC Bifidobacterium longum 6194” value in assay [1] was above 64 µM. For the same molecule, in [2], the “MIC Bifidobacteriu muniformis 6597” value is above 64 µM. In assay [3], the “MIC Escherichia coli nissile1917” value was 64 µM (≈ 96.2 µg/mL). In addition, the “MIC Lactobacillus acidophilus 6075” value in assay [4] was determined as 32 µM (≈ 48.1 µg/mL). For the same molecule, in [5], the “MIC Lactobacterium rhamnosus 6141” value was 64 µM (≈ 96.2 µg/mL). For the same molecule, the “MIC Pseudomonas aeruginosa PAO1” value in assay [6] was above 64 µM. The “MIC Streptococcus agalactiae H94” value in [7] is above 64 µM. In addition, the “MIC Fusobacterium nucleatum 10953” value against F. nucleatum 10953 turned out to be 8 µM (≈ 12 µg/mL). For the same molecule, the “MIC Fusobacterium nucleatum 25586” value in the assay on F. nucleatum 25586 came to 64 µM (≈ 96.2 µg/mL).
